Assay results: patent US20130158098A1, “Alkenyl Substituted Cycloaliphatic Compounds as Chemical Inducers of Proximity” (priority 2010, published 2013)

Biological target: T1, GFP-PYLcs and ABIcs localization fusion proteins (Arabidopsis thaliana, UniProt Q8VZS8)
T1 construct: A fragment of PYL1 (aa 33-209) is fused to full length GFP or SOS; HA (from the reverse primer); expressed in transfected cells; host or cells: HEK 293 / HEK 293T
T1 sequence (Q8VZS8 33-209): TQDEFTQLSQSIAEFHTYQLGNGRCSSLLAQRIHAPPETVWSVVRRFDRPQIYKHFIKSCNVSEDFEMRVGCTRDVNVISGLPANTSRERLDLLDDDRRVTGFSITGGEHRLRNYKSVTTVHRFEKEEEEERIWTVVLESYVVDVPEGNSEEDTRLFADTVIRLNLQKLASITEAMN
T1 sequence (P49597 126-434 partner): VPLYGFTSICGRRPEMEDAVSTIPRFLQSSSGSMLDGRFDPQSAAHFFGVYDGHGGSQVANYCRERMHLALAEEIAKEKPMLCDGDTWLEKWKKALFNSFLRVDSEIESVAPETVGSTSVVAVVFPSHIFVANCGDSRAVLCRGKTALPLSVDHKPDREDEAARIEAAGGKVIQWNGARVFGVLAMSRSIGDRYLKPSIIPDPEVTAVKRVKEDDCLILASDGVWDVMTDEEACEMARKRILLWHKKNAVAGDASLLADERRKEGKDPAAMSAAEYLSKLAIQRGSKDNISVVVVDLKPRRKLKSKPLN
Assay: ABA-induced subcellular relocalization of PYLcs fusion proteins
Format: cell-based
Conditions: NLS-ABIcs present; HEK 293T cells
Description: A fragment of ABI1 (aa 126-423) is either fused to full length mouse Brg, full length mouse Numb, full length human CD4 or myristoylation signal. A fragment of PYL1 (aa 33-209) is fused to full length GFP or SOS. Full length SOS is fused either to myristoylation signal or three copies of FKBP12.
Cells grown on glass coverslips were washed in phosphate-buffered saline (PBS) and fixed with 4% paraformaldehyde (PFA, prepared in PBS) at room temperature for 20 min. After three 5-min washes in PBS, the cells were permeabilized with 5% normal goat serum and 0.1% Triton X-100 in PBS at room temperature for 30 min and incubated with primary antibodies (FLAG antibody M2, Agilent, cat. #200472-21) at 4° C. overnight in the same buffer. The slides were subsequently washed three times with PBS (5 min each wash) and then incubated with Alexa fluorophore 594-conjugated secondary antibodies (Molecular Probes) for 1 hour at room temperature in the dark. Slides were washed three times in PBS for 5 min. Finally, the slides were mounted in Vectashield containing 4′,6-diamidino-2-phenylindole (DAPI; H-1500, Vector Laboratories) and imaged (63×) with a Leica DM5000B microscope.
The area and integrated fluorescence intensity of the whole cell and the nucleus were measured with Fiji (an open-source image processing package based on ImageJ) for images from the cytoplasmic or nuclear localization experiments. The area and the integrated fluorescence intensity of the cytoplasm were calculated by subtracting the value of the nucleus from the whole cell. The mean fluorescence intensity of nucleus or cytoplasm was calculated by dividing the integrated fluorescence intensity with the area of each subcellular compartment. The ratio between nuclear or cytoplasmic distribution was calculated by comparing the corresponding mean fluorescence intensity. Twenty cells were measured in each experiment.
The activities of proteins are often regulated by their subcellular localization. In another variation of domain reconstitution, the ability of ABA-induced proximity to control the localization of a chosen protein was tested. Fusions of ABIcs to specific subcellular localization domains were constructed and ABA was used to dimerize these ABIcs localization fusion proteins to green fluorescent protein (GFP)-fused PYLcs. The relocation of GFP-PYLcs to four subcellular locations was induced by fusing ABIcs to (i) Numb to serve as a cytoplasmic localization partner (Dho, S. E. et al. (1999) Characterization of four mammalian Numb protein isoforms: Identification of cytoplasmic and membrane-associated variants of the phosphotyrosine binding domain. J. Biol. Chem. 274, 33097-33104), (ii) to a nuclear localization sequence (NLS) or to Brg1 (Brm/SWI2-related gene 1) to serve as nuclear localization partners (Khavari, P. A. et al. (1993) BRG1 contains a conserved domain of the SWI2/SNF2 family necessary for normal mitotic growth and transcription. Nature 366, 170-174), (iii) to CD4 (cluster of differentiation 4) to serve as a plasma membrane localization partner (Sattentau, Q. J. et al. (1988) The CD4 antigen: Physiological ligand and HIV receptor. Cell 52, 631-633), or (iv) to a myristoylation (myr) sequence to serve as a plasma membrane and an intracellular membrane localization partner (Holsinger, L. J. et al. (1995) Signal transduction in T lymphocytes using a conditional allele of Sos. Proc. Natl. Acad. Sci. U.S.A. 92, 9810-9814)).

Compound: CC1=CC(=O)CC(C)(C)C1(O)/C=C/C(C)=C/C(=O)O (stereo not shown) [ABA, abscisic acid]
- redistribution of cytoplasmic Numb-GFP-PYLcs into the nucleus: triggered the redistribution
